For 33 molecules, RP-LC retention time results are on record in the METLIN SMRT retention time set (Domingo-Almenara et al. 2019).

The nature of this series: gradient 5% acetonitrile 3 min, to 50% in 2 min, to 85% in 15 min, held 3 min, 100 µL/min. The settings on record: column: Zorbax Extend-C18 2.1 x 50 mm; eluents: water / acetonitrile, 0.1% formic acid. In a few lines: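 Values are retention times taken from adduct peaks that software picked and an analyst inspected. The pure standards were run as mixtures of ~100 molecules on HPLC linked to a quadrupole time-of-flight mass spectrometer, in positive and negative ionization mode. A Zorbax Extend-C18 column (2.1 × 50 mm, 1.8 μm) was used at 100 μL/min with water and acetonitrile, each including 0.1% formic acid.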
As to `CCOC(=O)N1CCN(C(=O)C2CCC(=O)N(c3ccc(OC)cc3)C2c2ccc(F)cc2)CC1` (stereo not drawn), the RP-LC retention time amounted to 726 s. The result for `CCN1C(=O)CCc2cc(NS(=O)(=O)c3ccc(F)c(C)c3)ccc21` reads 834 s. The result for `CCN(CC)C(=O)c1ccc2c(c1)N(CC(=O)NCc1ccco1)C(=O)C1CCCCN21` (stereo not drawn) reads 783 s; that for `CCn1c(CNC(=O)C2CCC2)nc2c1CN(C(=O)c1ccc(OC)cc1)CC2`, 612 s. The result for `Brc1ccc(CSc2nnc3ccc(-c4cccnc4)nn23)cc1` reads 723 s; that for `COC(=O)Nc1ccc(CC(=O)NC2CC2)cc1`, 592 s; that for `CCc1nccn1Cc1noc(-c2cccs2)n1`, 593 s. The molecule `O=C(NCc1ccccn1)c1ccc2c(c1)N(C(=O)c1ccc(F)cc1)CC2` came in with an RP-LC retention time of 653 s. The result for `Cc1ccc(C)c(Cn2nc3ccc(S(=O)(=O)N4CCCC4)cn3c2=O)c1` reads 915 s; that for `O=C(Cn1nc(-c2ccco2)ccc1=O)N1CCN(c2ncccn2)CC1`, 615 s. Take `COc1ccc(OCC(=O)Nc2ccc3c(c2)CCCN3C(=O)C2CC2)cc1`: the RP-LC retention time amounted to 852 s. `COc1ccc(S(=O)(=O)Nc2cccnc2Nc2ccc(O)cc2)cc1` yielded an RP-LC retention time of 687 s. `CCCn1c(=O)c(-c2ccc(C(=O)NC(C)C)cc2)nc2ccccc21` gave an RP-LC retention time of 915 s.

The molecule `CC(C)c1ccc(S(=O)(=O)N2CC(=O)N(C3CCCC3)C3(CCCCC3)C2)cc1` showed an RP-LC retention time of 1330 s. Molecule `CCOc1ccc(-c2ccc(=O)n(Cc3nc(-c4ccc(C)cc4)no3)n2)cc1` came in with an RP-LC retention time of 1150 s.

Take `Cn1nc(-c2nnc(-c3ccccc3F)o2)c2c1CCN(S(=O)(=O)c1ccccc1Cl)C2`: the RP-LC retention time was determined as 928 s. The result for `Cc1cc(C)c(NC(=O)C2CCCN(S(=O)(=O)c3cc(-c4noc(C)n4)cs3)C2)c(C)c1` (stereo not drawn) reads 1110 s; that for `O=C(CCc1cn(-c2ccccc2)nc1-c1ccc2c(c1)OCO2)NCCc1ccco1`, 1100 s. As for `CCOC(=O)c1c(NCCC(C)C)c2ccc(Cl)cc2[nH]c1=O`, the RP-LC retention time came to 900 s. As for `CSc1ccccc1CN1CCC(CNC(=O)C2(c3ccc(F)cc3)CC2)CC1`, the RP-LC retention time came out at 596 s. The result for `CC1(CNC(=O)c2cccc(Br)c2)CCOCC1` reads 797 s.

Turning to `Cc1ccc(CN2CCN(C3CCN(C(=O)NCc4ccc(F)cc4)CC3)C(=O)C2=O)cc1`, the RP-LC retention time worked out at 767 s.

`COc1ccc(NC(=O)c2nc3nc(C)cc(C(F)F)n3n2)cc1Cl` displayed an RP-LC retention time of 813 s. `O=C(c1ccoc1)N1[C@H]2CC[C@@H]1c1cnc(-c3ccccc3)nc1C2`: the RP-LC retention time was 837 s. The result for `COc1ccc(NC(=O)N2CCC3(CC2)NC(=O)c2cccc(Cl)c2N3)c(C)c1` reads 834 s; that for `Cc1ccc(-n2ncc3c(NCCCN(C)C)ncnc32)cc1C`, 625 s. The figure for `CCOC(=O)CCC(=O)N1CCN(Cc2nc(C(C)(C)C)cs2)CC1` is 611 s.

On to `O=C(CSc1nnc2sc3ccccc3n12)Nc1ccc2c(c1)OCO2`, for which the RP-LC retention time was 691 s.

Turning to `CCN1CCN(CCCNC(=O)C2Cn3cccc3C(=O)N2CC(C)C)CC1` (stereo not drawn), the RP-LC retention time is 558 s.

Molecule `CCOc1ccc(N2C(=O)C3N=NN(Cc4nc(-c5ccc6c(c5)OCO6)no4)C3C2=O)cc1` (stereo not drawn) showed an RP-LC retention time of 963 s. Molecule `CCCc1noc(-c2ccc(-n3cnc(C(=O)NC4CCCCCC4)c3)nc2)n1` displayed an RP-LC retention time of 1070 s. With `CC(C)(NC(=O)c1cc(Cl)c2ccccc2c1O)C(=O)O`, the RP-LC retention time was found to be 1010 s. The figure for `Cc1ccc(NC(=O)Cn2c(C(C)C)nc3c(c2=O)CN(Cc2ccccc2)CC3)cc1C` is 738 s.
